Source: patent US20240117385A1, “ENZYMES OF LUCIFERIN BIOSYNTHESIS AND USE THEREOF” (LIGHT BIO, INC., priority 2018, published 2024)

Experiments:
[1] = system: recombinant hispidin hydroxylase from Neonothopanus nambi; experiment: HPLC analysis of hydroxylation by recombinant hispidin hydroxylase; type: biochemical; conditions: 0.2 μM substrate, 1 mM NADPH, 30 minutes
Method: The isolated recombinant hispidin hydroxylase from Neonothopanus nambi, obtained according to Example 4, was added to reaction mixtures comprising 1 mM of NADPH and 0.2 μM of hispidin, (E)-4-hydroxy-6-styryl-2H-pyran-2-one or (E)-4-hydroxy-6-(4-hydroxystyryl)-2H-pyran-2-one in 100 μl of the buffer (0.2 M of Na-phosphate buffer, 0.5 M of Na2SO4, 0.1% dodecylmaltoside (DDM) pH 8.0). In 30 minutes, the reaction mixture was analyzed by HPLC using synthetic luciferins as standards.

[2] = system: Physcomitrella patens moss; experiment: Bioluminescence of transgenic moss gametophytes soaked in hispidin; type: in vivo; conditions: hispidin 900 μg/ml in BCD medium
From the text: Coding sequences of Neonothopanus nambi hispidin hydroxylase and luciferase were optimized for expression in Physcomitrella patens moss cells. Then, in silico there was created an expression cassette comprising promoter of rice aktI gene, human cytomegalovirus 5′-untranslated region coding hispidin hydroxylase sequence optimized for expression in plant cells (SEQ ID NO 103), terminating codon, Agrobacterium osc gene terminator sequence, rice ubiquitin promoter, coding sequence of Neonothopanus nambi luciferase (SEQ ID NO 112) optimized for expression in moss cells, Agrobacterium tumefaciens nos gene terminator.
The obtained sequence was synthesized in such a way, that all said fragments appeared to be operatively cross-linked to each other, and cloned by Gibson assembly technique [Gibson et al., Nat Methods, 2009, 6:343-5] into expression vector pLand #1 (Institut Jean-Pierre Bourgin, France), between DNA fragments coincident with locus of Physcomitrella patens moss genomic DNA between sequences of highly expressed moss genes Pp3c16_6440 V3.1 and Pp3c16_6460 V3.1. The vector pLand #1 also comprised a guide RNA (sgRNA) sequence for Cas9 nuclease, complementary to the region of the same DNA locus. […]
The obtained moss gametophytes were soaked in BCD medium comprising hispidin at concentration of 900 μg/ml, and analyzed by means of IVIS Spectrum In Vivo Imaging System (Perkin Elmer).

HEK293NT cells = experiment: Luminescence of HEK293NT cells expressing hispidin hydroxylase and luciferase on adding hispidin; type: cell-based, human; conditions: hispidin 800 μg/ml, 24 hours after transfection

bioluminescence intensity exceeding the signal of control plants expressing luciferase only [2]: minimum by two orders of magnitude
Compound: O=c1cc(O)cc(/C=C/c2ccc(O)c(O)c2)o1 [hispidin, (E)-6-(3,4-dihydroxystyryl)-4-hydroxy-2H-pyran-2-one]
HPLC detection of hydroxylated product [1]: occurrence of peaks corresponding to 3d position hydroxylated derivatives
luminescence intensity exceeding the signal from untransfected control cells (HEK293NT cells): more than by two orders of magnitude
